According to patent US20260137706A1, “METHODS OF TREATING INFLAMMATORY DISEASES” (INTERLINE THERAPEUTICS, INC., priority 2023, published 2026):
Where two headings read alike, the source gives them in different places.

Columns and labels:
[1] = test system: NF-κB pathway (SEAP) in THP1-Dual cells; test: THP-1 Dual cell SEAP assay (L18-MDP stimulated); type: cell-based; conditions: Homo sapiens, THP1-Dual, read-out: NF-κB THP1 IC50 bin
How it was run: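 THP1-Dual cells (~25,000/well) were preincubated 30 min with serially diluted compounds, then stimulated with 10 ng/mL L18-MDP (final) for 20-24 h at 37 °C. Supernatant SEAP was read with QUANTI-Blue at OD 620-655 nm after 2 h. IC50 came from non-linear fits of % inhibition versus DMSO/L18-MDP controls after media-blank subtraction.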

[2] = biological target: T1, binding of His-XIAP(BIR2)-avi fusion protein to GST-RIPK2 fusion protein (RIPK2/XIAP) (Homo sapiens, UniProt O43353); test: RIPK2-XIAP binding competition PPI assay (TR-FRET); conditions: for IC50: read-out: PPI IC50 bin; for Emax: read-out: PPI Amax bin
T1 construct: made in house; host or cells: baculovirus infected Sf9 cells
T1 sequence (O43353 1-310 limits assumed): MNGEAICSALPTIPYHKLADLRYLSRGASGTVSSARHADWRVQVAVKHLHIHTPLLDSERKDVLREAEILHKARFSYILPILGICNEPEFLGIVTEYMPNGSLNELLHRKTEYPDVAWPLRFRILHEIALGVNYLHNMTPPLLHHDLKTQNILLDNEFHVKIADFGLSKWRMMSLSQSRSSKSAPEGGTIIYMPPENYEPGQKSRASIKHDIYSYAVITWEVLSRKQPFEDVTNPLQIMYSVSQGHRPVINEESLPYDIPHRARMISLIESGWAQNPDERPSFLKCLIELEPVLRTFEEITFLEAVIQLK
How it was run: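 Compounds (in DMSO, 100-fold stock) incubated 120 min at 23 °C with 1 nM GST-RIPK2 (aa 1-310) and 25 nM His-XIAP(BIR2 aa 152-231)-avi, plus anti-His-XL665 and anti-GST-Tb, in pH 7.5 Tris buffer. Read-out: 665/520 nm emission ratio. Normalized to no-inhibitor (0%) and 50 nM GSK583 (−100%); Amax binned A–D.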

[3] = biological target: T2, GST-RIPK2 fusion protein (human RIPK2, amino acids 1-310) (Homo sapiens, UniProt O43353); test: RIPK2 binding competition assay (TR-FRET, Tracer 199 displacement); conditions: 10 nM Tracer 199, 1 nM GST-RIPK2, read-out: RIPK2 IC50
T2 construct: made in house; host or cells: baculovirus infected Sf9 cells
T2 sequence (O43353 1-310): as the sequence (O43353 1-310 limits assumed) above
Excerpt: The ability of selected compounds of Formula (I) to inhibit the binding of an Alexa647-labelled ATP-competitive kinase inhibitor to a GST-RIPK2 fusion protein was quantified employing the TR-FRET-based RIPK2 binding competition assay as described in the following paragraphs.
Recombinant fusion protein of N-terminal Glutathione-S-Transferase (GST) and a fragment of human RIPK2 (amino acids 1-310 of accession number 043353), expressed in baculovirus infected Sf9 cells, purified via glutathione affinity chromatography, was used as GST-RIPK2 fusion protein. Tracer 199 from Life Technologies (catalogue no. PR9115B) was used as Alexa647-labelled ATP-competitive kinase inhibitor.
For the assay, 50 nL of a 100-fold concentrated solution of each test compound in DMSO was pipetted into either a black low volume 384-well microtiter plate or a black 1536-well microtiter plate (both Greiner Bio-One, Frickenhausen, Germany), 3 μL solution of Tracer 199 (16.7 nM=>final concentration in 5 μL assay volume is 10 nM) in aqueous assay buffer (25 mM Tris/HCl pH 7.5, 10 mM magnesium chloride (MgCl2), 5 mM β-glycerophosphate, 2.5 mM dithiothreitol (DTT), 0.5 mM ethylene glycol-bis(2-aminoethylether)-N,N,N′,N′-tetraacetic acid (EGTA), 0.5 mM sodium ortho-vanadate, 0.01% (w/v) bovine serum albumin (BSA), 0.005% (w/v) Pluronic F-127 (Sigma)) were added. Then the binding competition was started by the addition of 2 μL of a solution of the GST-RIPK2 fusion protein (2.5 nM=>final conc. in the 5 μL assay volume is 1 nM) and of Anti-GST-Tb (1.25 nM=>final conc. in the 5 μL assay volume is 0.5 nM), a Lumi4®—Tb cryptate-conjugated anti-GST antibody from PerkinElmer (catalogue no 61GSTTAH), in assay buffer.
The resulting mixture was incubated 45 min at 22° C. to allow the formation of a complex between the Tracer 199, the fusion protein and Anti-GST-Tb. Subsequently, the amount of this complex was evaluated by measurement of the resonance energy transfer from the Tb-cryptate to the Tracer 199. Therefore, the fluorescence emissions at 620 nm and 665 nm after excitation at 337 nm were measured in a TR-FRET reader, e.g. a Pherastar FS (BMG Labtechnologies, Offenburg, Germany) or a Viewlux (PerkinElmer). The ratio of the emissions at 665 nm and at 620 nm was taken as the measure of the amount of the complex. The data were normalized (assay reaction without inhibitor=0% activity, all other assay components but no GST-RIPK2 fusion protein=−100% activity).
Table A1 below lists IC50 values of selected compounds of Formula (I) measured in the RIPK2 binding competition assay.

[4] = RIPK2/XIAP binding competition PPI assay
[5] = RIPK2/XIAP binding competition PPI assay, Amax

Structure (SMILES) | IC50 [1] | IC50 [2, 4] | Emax [2] | IC50 [3] | Emax [2, 5]
COc1cc2ncc(-c3cc(F)c(N)nc3F)n2cc1S(=O)(=O)N(C)C [Example 161, 3-(6-amino-2,5-difluoropyridin-3-yl)-7-methoxy-N,N-dimethylimidazo[1,2-a]pyridine-6-sulfonamide] | > 1000 nM | > 20 nM | > 80% | > 20 nM | –
COc1cc2ncc(-c3cc(F)c(N)nc3F)n2cc1S(=O)(=O)C(C)(C)Cn1cccn1 [Example 65, 3,6-difluoro-5-(7-methoxy-6-((2-methyl-1-(1H-pyrazol-1-yl)propan-2-yl)sulfonyl)imidazo[1,2-a]pyridin-3-yl)pyridin-2-amine] | > 1000 nM | > 20 nM | – | > 20 nM | > 80%
C[C@H](CO)COc1cc2ncc(-c3cc4cc[nH]c4nc3F)n2cc1S(=O)(=O)C(C)(C)C [Example 228, (R)-3-((6-(tert-butylsulfonyl)-3-(6-fluoro-1H-pyrrolo[2,3-b]pyridin-5-yl)imidazo[1,2-a]pyridin-7-yl)oxy)-2-methylpropan-1-ol] | < 50 nM | < 1 nM | – | < 1 nM | > 80%
COc1cc2ncc(-c3cc(F)c(N)nc3F)n2cc1S(=O)(=O)N1CCN(C)CC1 [Example 165, 3,6-difluoro-5-(7-methoxy-6-((4-methylpiperazin-1-yl)sulfonyl)imidazo[1,2-a]pyridin-3-yl)pyridin-2-amine] | > 1000 nM | > 20 nM | – | > 20 nM | > 80%
COc1cc2ncc(-c3ccc4nc(N)n(C)c4c3)n2cc1S(=O)(=O)C(C)(C)C [Example 100, 6-(6-(tert-butylsulfonyl)-7-methoxyimidazo[1,2-a]pyridin-3-yl)-1-methyl-1H-benzo[d]imidazol-2-amine] | > 1000 nM | > 20 nM | – | 2.5 to 20 nM | < 30%
COc1cc2ncc(-c3cc(F)c(OC)c(NS(=O)(=O)C4(CO)CC4)c3)n2cc1S(=O)(=O)C(C)(C)C [Example 180, N-(5-(6-(tert-butylsulfonyl)-7-methoxyimidazo[1,2-a]pyridin-3-yl)-3-fluoro-2-methoxyphenyl)-1-(hydroxymethyl)cyclopropane-1-sulfonamide] | 50 to 250 nM | < 1 nM | – | 1 to 2.5 nM | > 80%
COc1cn2ncc(-c3cc(F)c(N)nc3F)c2nc1N1C(=O)OCC1(C)C [Example 116, 3-(3-(6-amino-2,5-difluoropyridin-3-yl)-6-methoxypyrazolo[1,5-a]pyrimidin-5-yl)-4,4-dimethyloxazolidin-2-one] | > 1000 nM | > 20 nM | – | > 20 nM | 55 to 80%
C[C@@H](O)CCOc1cc2ncc(-c3cc(F)c(N)nc3F)n2cc1S(=O)(=O)C(C)(C)C [Example 36, (R)-4-((3-(6-amino-2,5-difluoropyridin-3-yl)-6-(tert-butylsulfonyl)imidazo[1,2-a]pyridin-7-yl)oxy)butan-2-ol] | 50 to 250 nM | 2.5 to 20 nM | – | 1 to 2.5 nM | > 80%
CC(C)(C)S(=O)(=O)c1cn2c(-c3cc(Br)c(N)nc3F)cnc2cc1OCCO [Example 186, 2-((3-(6-amino-5-bromo-2-fluoropyridin-3-yl)-6-(tert-butylsulfonyl)imidazo[1,2-a]pyridin-7-yl)oxy)ethan-1-ol] | 250 to 1000 nM | 2.5 to 20 nM | – | 2.5 to 20 nM | > 80%
COc1cc2ncc(-c3ccc(N)nc3F)n2cc1S(=O)(=O)C1CC1 [Example 66, 5-(6-(cyclopropylsulfonyl)-7-methoxyimidazo[1,2-a]pyridin-3-yl)-6-fluoropyridin-2-amine] | > 1000 nM | > 20 nM | – | > 20 nM | > 80%
COc1c(F)cc(-c2cnn3cc(OCCO)c(S(=O)(=O)C(C)(C)C)cc23)cc1NS(=O)(=O)c1cnn(C)c1 [Example 226, N-(5-(5-(tert-butylsulfonyl)-6-(2-hydroxyethoxy)pyrazolo [1,5-a]pyridin-3-yl)-3-fluoro-2-methoxyphenyl)-1-methyl-1H-pyrazole-4-sulfonamide] | < 50 nM | < 1 nM | – | < 1 nM | > 80%
COc1cc2ncc(-c3cc(F)c(N)nc3F)n2cc1S(=O)(=O)C1(C)CCNCC1 [Example 71, 3,6-difluoro-5-(7-methoxy-6-((4-methylpiperidin-4-yl)sulfonyl)imidazo[1,2-a]pyridin-3-yl)pyridin-2-amine] | > 1000 nM | 2.5 to 20 nM | – | 2.5 to 20 nM | > 80%
COc1cc2ncc(-c3cc(F)c(OC)c(NS(=O)(=O)c4cnn(CCO)c4)c3)n2cc1S(=O)(=O)C(C)(C)C [Example 227, N-(5-(6-(tert-butylsulfonyl)-7-methoxyimidazo[1,2-a]pyridin-3-yl)-3-fluoro-2-methoxyphenyl)-1-(2-hydroxyethyl)-1H-pyrazole-4-sulfonamide] | < 50 nM | < 1 nM | – | 1 to 2.5 nM | > 80%
C[C@H](CO)COc1cn2ncc(-c3cc(Cl)c(N)nc3F)c2cc1S(=O)(=O)C(C)(C)C [Example 200, (R)-3-((3-(6-amino-5-chloro-2-fluoropyridin-3-yl)-5-(tert-butylsulfonyl)pyrazolo [1,5-a]pyridin-6-yl)oxy)-2-methylpropan-1-ol] | < 50 nM | < 1 nM | – | < 1 nM | > 80%
COc1cc2ncc(-c3ccc(NC(C)=O)nc3)n2cc1S(=O)(=O)C(C)(C)C [Example 8, N-(5-(6-(tert-butylsulfonyl)-7-methoxyimidazo[1,2-a]pyridin-3-yl)pyridin-2-yl)acetamide] | > 1000 nM | > 20 nM | – | > 20 nM | < 30%
CCCS(=O)(=O)Nc1cc(-c2cnc3cc(OC)c(S(=O)(=O)C(C)(C)CO)cn23)cc(F)c1OC [Example 126, N-(3-fluoro-5-(6-((1-hydroxy-2-methylpropan-2-yl)sulfonyl)-7-methoxyimidazo[1,2-a]pyridin-3-yl)-2-methoxyphenyl)propane-1-sulfonamide] | < 50 nM | < 1 nM | – | < 1 nM | > 80%
COc1cc2ncc(-c3ccc4c(N)n[nH]c4c3)n2cc1S(=O)(=O)C(C)(C)C [Example 103, 6-(6-(tert-butylsulfonyl)-7-methoxyimidazo[1,2-a]pyridin-3-yl)-1H-indazol-3-amine] | > 1000 nM | > 20 nM | – | > 20 nM | < 30%
CCC(CO)COc1cc2ncc(-c3cc(F)c(N)nc3F)n2cc1S(=O)(=O)C(C)(C)C (stereo not shown) [Example 48, 2-(((3-(6-amino-2,5-difluoropyridin-3-yl)-6-(tert-butylsulfonyl)imidazo[1,2-a]pyridin-7-yl)oxy)methyl)butan-1-ol] | 50 to 250 nM | 2.5 to 20 nM | – | 1 to 2.5 nM | > 80%
CC(N)COc1cc2ncc(-c3cc(Cl)c(N)nc3F)n2cc1S(=O)(=O)C(C)(C)C (stereo not shown) [Example 239, 5-(7-(2-aminopropoxy)-6-(tert-butylsulfonyl)imidazo [1,2-a]pyridin-3-yl)-3-chloro-6-fluoropyridin-2-amine] | 250 to 1000 nM | 2.5 to 20 nM | – | 2.5 to 20 nM | > 80%
